Assay results reported in US6911319B2, “Methods and kits for detecting protein kinases” (Lumitech (UK) Limited, priority 2000, dated 2005).
Blank lines part the entries; values can stand above or below the molecule they belong to.

Legend:
Assay type in all cases: biochemical
raf-1 = assay: Bioluminescent protein kinase assay, raf-1 activation of inactive MEK-1; settings: two different concentrations of PD098059; inactive MEK-1 as substrate
[1] = target: luciferase-luciferin reaction (Photinus pyralis, UniProt P08659); assay: Effect of inhibitor on the bioluminescent ATP detection system; settings: even at the highest concentration of the inhibitor; 10 μM ATP, 100 μl volumes, 96 well plate
Method: We initially chose to look at a broad spectrum kinase inhibitor staurosporine (Calbiochem). Firstly, we tested the inhibitor (in DMSO) on the ATP detection reagent to ensure that the inhibitor would not affect the luciferase-luciferin reaction.
The results are presented as the means of triplicate wells±SD.
The experiment was performed using 10 μM ATP in 100 μl volumes in a 96 well plate with the addition of 20 μl of ATP detection reagent.

JNK2α2 = target: T1, JNK2α2 (Homo sapiens, UniProt P45984); assay: Bioluminescent protein kinase assay, JNK2α2 with ATF-2 as substrate
T1 construct: purchased Upstate Discovery
Method: The lower concentration had little effect, however 5 μM caused approximately 50% inhibition after 30 minutes at 30° C.
The above assay was performed in 200 μl volumes in plastic tubes in, a 30° C. waterbath. At each time point 20 μl samples were removed from the tubes and added to wells of a 96 well plate, followed by the addition of 20 μl of ATP detection reagent. The final concentration of ATP used was 12.5 μM, with JNK2α2 at 1.25 μM and ATF-2 at 2.55 μM.

MAPK-1/ERK-1 = target: T2, MAPK-1/ERK-1 (Homo sapiens, UniProt P27361); assay: Bioluminescent protein kinase assay, MAPK-1 with MBP as substrate; settings: 30° C. for 30 minutes, MBP 2.72 μM
T2 construct: purchased UBI (Upstate Biotechnology)
Method: We also investigated the effect of genistein (Calbiochem) on MAPK-1 activity with MBP as substrate.
The assay buffer used was the same as for the SAP kinases (see above). The assay was performed in 100 μl volumes in a 96 well microtitre plate at 30° C. for 30 minutes. MBP (Calbiochem) was used at the same concentration as previously described (2.72 μM), with the activated MAPK1/ERK1 (UBI) used at a final concentration of 2.5U per100 μl reaction volume. The inhibitor was added at concentrations of 0, 0.1, 0.25, 0.5 and 1.0 μM, with 10 μl being added per well in 0.1% (v/v) DMSO.
For completeness, control samples with and without DMSO (0+DMSO and 0−DMSO, respectively) were also analysed to confirm that there was no effect of DMSO on the performance of the assay.

T1 sequence (P45984 whole entry): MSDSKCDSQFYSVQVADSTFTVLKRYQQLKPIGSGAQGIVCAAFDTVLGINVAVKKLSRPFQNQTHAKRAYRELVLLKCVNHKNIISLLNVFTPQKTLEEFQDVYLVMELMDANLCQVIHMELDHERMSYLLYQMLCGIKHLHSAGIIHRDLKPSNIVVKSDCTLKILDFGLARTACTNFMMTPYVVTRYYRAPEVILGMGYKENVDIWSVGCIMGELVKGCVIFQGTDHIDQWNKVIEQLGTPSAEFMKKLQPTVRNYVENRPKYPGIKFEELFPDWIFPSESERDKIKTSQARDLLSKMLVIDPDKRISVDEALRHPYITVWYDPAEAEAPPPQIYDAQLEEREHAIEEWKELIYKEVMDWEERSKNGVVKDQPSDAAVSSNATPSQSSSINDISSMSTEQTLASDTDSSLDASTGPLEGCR
T2 sequence (P27361 whole entry): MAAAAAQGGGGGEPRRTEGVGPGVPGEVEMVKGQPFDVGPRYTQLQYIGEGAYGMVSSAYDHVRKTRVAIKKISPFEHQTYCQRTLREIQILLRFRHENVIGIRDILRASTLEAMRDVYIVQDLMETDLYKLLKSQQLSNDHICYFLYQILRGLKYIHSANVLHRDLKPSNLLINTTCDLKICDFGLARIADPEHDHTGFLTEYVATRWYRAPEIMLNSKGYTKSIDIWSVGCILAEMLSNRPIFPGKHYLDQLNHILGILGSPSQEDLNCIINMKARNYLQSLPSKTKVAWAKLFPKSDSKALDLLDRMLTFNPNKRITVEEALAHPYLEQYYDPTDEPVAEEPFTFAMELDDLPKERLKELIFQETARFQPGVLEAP
Chain of luciferase-luciferin reaction (P08659 whole entry): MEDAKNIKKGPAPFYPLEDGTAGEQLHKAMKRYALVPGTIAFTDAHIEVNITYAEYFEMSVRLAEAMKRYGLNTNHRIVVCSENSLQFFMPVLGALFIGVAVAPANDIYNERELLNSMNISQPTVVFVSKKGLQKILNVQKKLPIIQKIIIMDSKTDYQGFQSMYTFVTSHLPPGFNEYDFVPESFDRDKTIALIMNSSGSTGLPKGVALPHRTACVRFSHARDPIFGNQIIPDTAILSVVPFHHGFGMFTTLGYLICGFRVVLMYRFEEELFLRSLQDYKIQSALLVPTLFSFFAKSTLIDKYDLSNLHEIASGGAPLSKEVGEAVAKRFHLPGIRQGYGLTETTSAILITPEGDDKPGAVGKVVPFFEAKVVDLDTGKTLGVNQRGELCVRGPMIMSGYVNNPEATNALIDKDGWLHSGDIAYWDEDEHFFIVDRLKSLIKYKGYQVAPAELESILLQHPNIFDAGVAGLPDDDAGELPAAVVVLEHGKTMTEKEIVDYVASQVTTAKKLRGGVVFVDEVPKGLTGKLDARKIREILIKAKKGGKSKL

light output in the presence of the inhibitor (indicating reduced kinase activity) (raf-1): concentration dependent increase
SMILES: COc1cccc(-c2cc(=O)c3ccccc3o2)c1N [PD098059]

SMILES: CN[C@@H]1C[C@H]2O[C@@](C)([C@@H]1OC)n1c3ccccc3c3c4c(c5c6ccccc6n2c5c31)C(=O)NC4 [staurosporine]
effect upon light output [1]: no significant effect | inhibition of JNK2α2 activity (JNK2α2; 5 μM staurosporine, after 30 minutes at 30° C., ATP 12.5 μM, JNK2α2 1.25 μM, ATF-2 2.55 μM): approximately 50% | effect on JNK2α2 activity (JNK2α2; the lower of two staurosporine concentrations, 30° C.): little effect

effect on MAPK-1 activity (MAPK-1/ERK-1; genistein 500 nM): an effect | effect on MAPK-1 activity (MAPK-1/ERK-1; genistein 1 μM): increased inhibitory activity
SMILES: O=c1c(-c2ccc(O)cc2)coc2cc(O)cc(O)c12 [genistein]
